{
  "source": "patent US10781229B2",
  "about": "“Tris- or neopentyl glycol-based amphiphiles and uses thereof” (Industry-University Cooperation Foundation Hanyang …, priority 2015, dated 2020)",
  "target": "T1, uric acid-xanthine/H+ symporter (UapA) (Emericella nidulans, UniProt Q07307, G411V)",
  "T1 construct": "GFP; made in house; host or cells: Saccharomyces cerevisiae FGY217",
  "T1 sequence (Q07307 12-574 G411V)": "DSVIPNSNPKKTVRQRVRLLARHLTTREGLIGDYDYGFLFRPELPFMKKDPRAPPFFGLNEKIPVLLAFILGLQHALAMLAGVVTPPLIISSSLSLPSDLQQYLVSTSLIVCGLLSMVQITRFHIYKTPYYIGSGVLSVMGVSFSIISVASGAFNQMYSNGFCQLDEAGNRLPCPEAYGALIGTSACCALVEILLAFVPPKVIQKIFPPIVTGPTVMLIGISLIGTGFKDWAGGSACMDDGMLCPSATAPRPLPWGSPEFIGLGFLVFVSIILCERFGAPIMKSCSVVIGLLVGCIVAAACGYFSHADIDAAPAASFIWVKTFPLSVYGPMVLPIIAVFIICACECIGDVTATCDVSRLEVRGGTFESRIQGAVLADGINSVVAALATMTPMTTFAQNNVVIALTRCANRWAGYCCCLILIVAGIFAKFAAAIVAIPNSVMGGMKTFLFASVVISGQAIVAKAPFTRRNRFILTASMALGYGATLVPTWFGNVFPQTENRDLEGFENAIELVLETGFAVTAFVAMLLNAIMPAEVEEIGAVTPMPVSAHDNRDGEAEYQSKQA",
  "experiment": "UapA structural stability by CPM assay",
  "set-up": "species or system Aspergillus nidulans",
  "conditions": "40° C.",
  "protocol": "Experiments to measure the structural stability of a uric acid-xanthine/H+ symporter (UapA) due to TDTs or NDTs in an aqueous solution were conducted. The structural stability of UapA was measured using CPM assay, and the concentrations of TDTs, NDTs, and DDM concentration were CMC+0.04% by weight.\nIn particular, UapA protein is a uric acid-xanthine/H+ symporter in Aspergillus nidulans). The stability of the protein was measured using N-[4-(7-Diethylamino-4-methyl-3-coumarinyl)phenyl]maleimide (CPM), as a sulfhydryl-specific fluorophore, by means of a fluorescence spectrophotometer. A free sulfhydryl group of a cysteine residue is present within the center of the protein but may be present near a solvent due to unfolding of the protein. CPM becomes fluorescent by reaction with free thiol and, accordingly, functions as a sensor of unfolding. […] The reaction was monitored at 40° C. for 120 minutes by means of a microplate spectrofluorometer. So as to calculate a ratio of folded proteins relative to remaining proteins after being maintained at 40° C. for […], relative maximum fluorescence was used. […]",
  "note": "“Also recorded” adds a separate entry of the source.",
  "data": [
    {"smiles": "CCCCCCCCCCCC(CCCCCCCCCCC)COCC(CO[C@@H]1OC(CO)[C@@H](O)C(O)C1O)(CO[C@@H]1OC(CO)[C@@H](O)C(O)C1O)CO[C@@H]1OC(CO)[C@@H](O)C(O)C1O", "note": "(some centres unmarked) [NDT-C11]", "values": [
      {"measurement": "UapA protein structural stability (amount of folded protein)", "setting": "CMC+0.04% by weight", "result": "most excellent"},
      {"measurement": "UapA protein structural stability (amount of folded protein)", "setting": "CMC+0.2% by weight", "result": "most excellent; also recorded: superior to those of MNG-3"}
    ]}
  ]
}
